From the COVID Moonshot data (paper PMC7615835)
Several values for one entry are separate records, joined by “and”; a condition that tells them apart may be missing. Identical values can stand only once.

Each compound was assayed against SARS-CoV-2 Main Protease (SARS-CoV-2) (UniProt P0DTD1).

Compound	IC50
CC(C)(C)c1ccc(N(C(=O)c2nnc(O)cc2O)C(C(=O)NCCc2cccc(F)c2)c2cccnc2)cc1 (stereo unspecified)	> 99.5 µM
O=C(Cc1cccc(Cl)c1)Nc1ncnc2ccccc12	> 99.5 µM
CN1CCn2nc(C(=O)N(c3ccc(C(C)(C)C)cc3)C(C(=O)NCCc3cccc(F)c3)c3cccnc3)cc2S1(=O)=O (stereo unspecified)	> 99.5 µM
CCCc1nn(C)c(C(=O)Nc2cc(Cl)cc(CC(=O)Nc3cncc4ccccc34)c2)c1N	7.35 µM
O=C1CCCN1Cc1cccc(C(=O)N2CCC(C3CCNC3)CC2)c1 (stereo unspecified)	> 99.5 µM
O=S(=O)(Nc1ccccc1)c1cc2c(cc1OCc1ccccc1)OCO2	72.8 µM
O=C(Cc1cc(Cl)cc(Nc2c(Cl)cncc2Cl)c1)Nc1cncc2ccccc12	2.04 µM
O=C(Cc1cc(Cl)cc(Nc2ccc(Cl)nc2Cl)c1)Nc1cncc2ccccc12	2.31 µM
CC(CCc1ccco1)NC(=O)Nc1cn(C)c(=O)c2ccccc12 (stereo unspecified)	44.5 µM
O=C(NCCc1cccc(F)c1)C(c1cccnc1)N(C(=O)c1cnc[nH]1)c1ccc(OC2CCOC2)cc1 (stereo unspecified)	25.8 µM
CC(C)(C)c1ccc(N(C(=O)c2ccc(Cl)o2)C(C(=O)NCCc2cccc(F)c2)c2cccnc2)cc1 (stereo unspecified)	0.315 µM
C=CC(=O)NCc1ccc(C(=O)NCc2cc(C)cc3c(C)c(C)[nH]c23)cc1	> 99.5 µM
O=C(Cc1cc(Cl)cc(Nc2ncc(F)cc2Br)c1)Nc1cncc2ccccc12	1.84 µM
Cc1ccncc1NC(=O)Cc1cc(Cl)cc(OCc2nnc(C3CCCCC3)o2)c1	20.6 µM
CC(CCC(OC1OC(COC2OC(CO)C(O)C(O)C2O)C(O)C(O)C1O)C(C)(C)O)C1CCC2(C)C3CC=C4C(CCC(O)C4(C)C)C3(C)C(O)CC12C (stereo unspecified)	> 99.5 µM
O=C1NC[C@@H](C(=O)Nc2cncc3ccccc23)c2cc(Cl)ccc21 (stereo in doubt)	99.3 µM
Cc1nc(Cl)c(Nc2cc(Cl)cc(CC(=O)Nc3cncc4ccccc34)c2)c(Cl)n1	1.64 µM
O=C(Nc1cncc2ccccc12)C1COc2ccc(Cl)cc21 (stereo unspecified)	0.764 µM
O=C(Cc1cc(Cl)cc(Nc2ccc(OC(F)(F)F)cc2Cl)c1)Nc1cncc2ccccc12	1.9 µM
C=CC(=O)NCC(=O)N(Cc1ccccc1)C[C@H](O)c1cccs1 (stereo in doubt)	> 99.5 µM
Cc1ccncc1NC(=O)Cc1cccc(F)c1	96.9 µM and 94.8 µM
CN(CC#N)S(=O)(=O)N1Cc2ccc(Cl)cc2C2(CCN(c3cncc4ccccc34)C2=O)C1 (stereo unspecified)	0.407 µM
Cc1cn2nnc(C(=O)N(c3ccc(C(C)(C)C)cc3)C(C(=O)NCCc3cccc(F)c3)c3cccnc3)c2c(=O)[nH]1 (stereo unspecified)	> 99.5 µM
N#CC1(CS(=O)(=O)NCc2ccc(Cl)cc2CC(=O)Nc2cncc3ccccc23)CC1	0.133 µM

Compound	IC50
O=C(Cc1cc(Cl)cc(Nc2ccc3cc(Br)ccc3c2)c1)Nc1cncc2ccccc12	2.1 µM
COc1ccc(S(=O)(=O)N2CCN(C(=O)CCl)CC2)cc1	27.5 µM
Cc1ccc2cncc(NC(=O)Cc3cccc(Cl)c3)c2c1	0.537 µM
O=C1NCC(C(=O)Nc2cncc3ccccc23)c2cc(F)cc(F)c21 (stereo unspecified)	1.73 µM
Cc1ccncc1NC(=O)C(C)(C)c1cccc(Cl)c1	95.8 µM and 98.1 µM
CC1=C[C@@H](c2c(O)cc(-c3cc4ccc(O)cc4o3)cc2O)[C@@H](C(=O)c2ccc(O)cc2O)[C@H](c2ccc(O)cc2O)C1 (stereo in doubt)	> 99.5 µM
O=C1OC2(CCOc3ccc(Cl)cc32)C(=O)N1c1cncc2ccccc12 (stereo unspecified)	> 99.5 µM
N#Cc1ncc(F)cn1	> 99.5 µM
CS(=O)(=O)NCC1(C(=O)Nc2cncc3ccccc23)CCOc2ccc(Cl)cc21 (stereo unspecified)	3.87 µM
O=C(Cc1cc(Cl)cc(N[C@H](c2ccccc2)[C@@H](O)c2ccccc2)c1)Nc1cncc2ccccc12 (stereo in doubt)	2.24 µM
O=C(Nc1cncc2ccccc12)[C@H]1CCNc2cc(Cl)c(Cl)cc21 (stereo in doubt)	> 99.5 µM
N#CC1(CS(=O)(=O)N2Cc3ccc(Cl)cc3C(C(=O)Nc3nncn3C3CC3)C2)CC1 (stereo unspecified)	55.3 µM
N#Cc1cc(F)c(Nc2cc(Cl)cc(CC(=O)Nc3cncc4ccccc34)c2)cc1F	2.12 µM
c1ccc2oc(C3CCCN(Cc4cnc5cnccn45)C3)nc2c1 (stereo unspecified)	> 99.5 µM
O=C(Cc1cccc(Cl)c1)NC1C(=O)Nc2ccccc21 (stereo unspecified)	> 99.5 µM
O=C(NCCc1cccc(F)c1)C(c1cccnc1)N(C(=O)c1ccco1)[C@H]1C[C@H](c2cc(F)cc(F)c2)C1 (stereo partly specified)	> 99.5 µM
O=C(Cc1cc(Cl)cc(Nc2ccc(Br)c([N+](=O)[O-])c2)c1)Nc1cncc2ccccc12	2.06 µM
CN(c1ccc2c(NC(=O)Cc3cccc(Cl)c3)cncc2c1)S(C)(=O)=O	2.7 µM
Cc1ccc2ncc(NC(=O)Cc3cccc(Cl)c3)n2c1	9.01 µM
O=C1OC(c2cccs2)=N/C1=C\c1ccc(N2CCOCC2)s1	0.696 µM
O=C(Cc1cccc(Cl)c1)Nc1cccnc1	53.7 µM
CCS(=O)(=O)Nc1ccc2cncc(NC(=O)Cc3cccc(Cl)c3)c2c1	1.02 µM
Cn1c(NC(=O)Cc2csc3nccn23)nc2ccc(F)cc21	> 99.5 µM
CNC(=O)CN1CC(C(=O)Nc2cncc3cccc(Cl)c23)c2cc(Cl)ccc2C1=O (stereo unspecified)	0.0917 µM

Compound	IC50
CC(C)(C)c1ccc(N(C(=O)c2nc(CN3CCOCC3)cs2)C(C(=O)NCCc2cccc(F)c2)c2cccnc2)cc1 (stereo unspecified)	> 99.5 µM
COc1cccc2[nH]c(=O)cc(C(=O)N3CCN(c4cccc(Cl)c4)CC3)c12	4.68 µM
C=CC(=O)N(c1cc(C(C)(C)C)on1)C(C(=O)NCCc1cccc(F)c1)c1cncc(O)c1 (stereo unspecified)	> 99.5 µM
C=CC(=O)N(c1cc(C(C)(C)C)on1)C(C(=O)Nc1cccc(CC)c1)c1cccnc1 (stereo unspecified)	> 99 µM
CC(NC(=O)c1cc2n(n1)CCO2)(C(=O)Nc1cncc2ccccc12)c1ccc(Cl)c(Cl)c1 (stereo unspecified)	6.89 µM and 10.5 µM
O=C(N/N=c1\cc[nH]c2ccccc12)c1ccc2ncccc2c1	> 99.5 µM
O=C(Nc1cnccc1CO)[C@@H]1COc2ccc(Cl)cc21 (stereo in doubt)	42.7 µM and 42 µM
Cc1ncc(CO)c(CNc2cc(Cl)cc(CC(=O)Nc3cncc4ccccc34)c2)c1O	9.11 µM
CN(C)C(=O)c1ccc2c(NC(=O)Cc3cccc(Cl)c3)cncc2c1	2.44 µM
COCCCNC(=O)C(c1cccnc1)N(C(=O)c1cocn1)c1ccc(C(C)(C)C)cc1 (stereo unspecified)	8.79 µM
CC(C(=O)NS(=O)(=O)c1cnn(-c2cccc(C(F)(F)F)c2)c1)n1cnc(C#N)n1 (stereo unspecified)	> 99.5 µM
Cc1cc(C(F)(F)F)nc2n[nH]c(NC(=O)C3CCOc4ccc(Cl)cc43)c12 (stereo unspecified)	26 µM
O=C(NCCc1cccc(F)c1)C(c1cccnc1)N(C(=O)c1cocn1)c1ccc2c(c1)CCCS2(=O)=O (stereo unspecified)	> 99.5 µM
Nc1nn(C(=O)C2CCOc3ccc(Cl)cc32)c2cc(F)ccc12 (stereo unspecified)	> 99.5 µM
CC(=O)NC(C(=O)Nc1cncc2ccccc12)c1ccc(Cl)c(Cl)c1 (stereo unspecified)	4.05 µM
O=C(Cc1cc(Cl)cc(NCc2ccc([N+](=O)[O-])cc2)c1)Nc1cncc2ccccc12	1.82 µM
O=C(Cc1cc(Cl)cc(Nc2ccccc2I)c1)Nc1cncc2ccccc12	2.17 µM
O=CNc1ccc(C(=O)NC(c2ccccc2)C2CCOCC2)cc1 (stereo unspecified)	> 99.5 µM
Cc1ccncc1NC(=O)C1(c2cccc(Cl)c2)CC1	> 99.5 µM
O=C(Nc1cncc2ccccc12)C1CN(S(=O)(=O)[C@@H]2CCC[C@H]2O)Cc2ccc(Cl)cc21 (stereo in doubt)	0.129 µM and 0.146 µM
Cc1ccncc1NC(=O)Cc1cc(Cl)cc(NC2CC2C(F)(F)F)c1 (stereo unspecified)	25.3 µM
CC(=O)N(CC(=O)Nc1ccc(F)c(Cl)c1)c1cccc(C#N)c1	> 99.5 µM
COC(=O)C(C)(CN(C(=O)c1ccco1)C(C(=O)NCCc1cccc(F)c1)c1cccnc1)c1ccccc1F (stereo unspecified)	> 99.5 µM
C[C@H](C/C=C/C(C)(C)O)[C@H]1CC[C@@]2(C)[C@@H]3C=C[C@]45OC(O)[C@@]3(CC[C@]12C)[C@@H]4CC[C@H](O[C@@H]1O[C@H](CO)[C@@H](O)[C@H](O)[C@H]1O)C5(C)C (stereo in doubt)	> 99.5 µM

Compound	IC50
CC(C)(C#N)CS(=O)(=O)N1Cc2ccc(Cl)cc2C2(CCN(c3cncc4ccccc34)C2=O)C1 (stereo unspecified)	0.448 µM
O=C(Cc1cc(Cl)cc(Nc2ccc(C(F)(F)F)cc2)c1)Nc1cncc2ccccc12	2.06 µM
CS(=O)(=O)c1ccc2c(N3CCC4(CN(S(=O)(=O)CC5(C#N)CC5)Cc5ccc(Cl)cc54)C3=O)cncc2c1 (stereo unspecified)	0.103 µM
Cc1ccncc1NC(=O)Cc1cc(Cl)cc(NC2CCC(F)(F)C2O)c1 (stereo unspecified)	23 µM
O=C(Nc1cncc2ccncc12)[C@H]1CCOc2cc(F)c(Cl)cc21 (stereo in doubt)	> 99.5 µM
Cc1c(NC(=O)C2CCOc3ccc(Cl)cc32)cncc1N(C)C (stereo unspecified)	> 99.5 µM
Cc1cc(I)ccc1Nc1cc(Cl)cc(CC(=O)Nc2cncc3ccccc23)c1	2.45 µM
O=C(CCl)N1CCN(S(=O)(=O)c2ccsc2)[C@H](C(=O)N2CCOCC2)C1 (stereo in doubt)	2.88 µM
O=C(Cc1cncc2ccccc12)N1CCOc2ccc(Cl)cc21	6.05 µM
Cc1ccc(S(=O)(=O)NCCNC(=O)N2CCN(S(=O)(=O)N3CCCC3)CC2)cc1	> 99.5 µM
CS(=O)(=O)c1ccc2c(NC(=O)C3CN(S(=O)(=O)CC4(C#N)CC4)Cc4ccc(Cl)cc43)cncc2c1 (stereo unspecified)	0.0582 µM and 0.117 µM
O=C(Nc1cncc2ccccc12)[C@@H]1CN(S(=O)(=O)CC2CS(=O)(=O)C2)Cc2ccc(Cl)cc21 (stereo in doubt)	8.23 µM
O=C(NNc1nc2cccnc2s1)c1ccc2ccncc2c1	> 99.5 µM
CC(C)(C)c1ccc(N(C(=O)c2cnc(C3CCOC3)s2)C(C(=O)NCCc2cccc(F)c2)c2cccnc2)cc1 (stereo unspecified)	> 99.5 µM
CN(C)C(=O)CN1CC(C(=O)Nc2cncc3ccccc23)c2cc(Cl)ccc2C1=O (stereo unspecified)	0.734 µM
Cc1ccnc(N)c1NC(=O)C1CCOc2ccc(Cl)cc21 (stereo unspecified)	69.5 µM
Nc1nn(C(=O)Cc2cccc(Cl)c2)c2cc(F)ccc12	> 99.5 µM
CC(C)(C)c1csc(Nc2cc(Cl)cc(CC(=O)Nc3cncc4ccccc34)c2)n1	2.09 µM
CCOC(=O)c1cc(-c2ccccc2)sc1NC(=O)Cc1csc(-c2ccccc2)n1	4.66 µM
CC(C)(C)c1ccc(N(C(=O)c2cocn2)C(C(=O)NCCc2cccc(F)c2)c2ccc[nH]c2=O)cc1 (stereo unspecified)	> 99.5 µM
CCN1CCCC1C1CCCN1C(=O)CCc1c[nH]c2ccccc12 (stereo unspecified)	> 99.5 µM
O=C(CCl)N1CCN(S(=O)(=O)c2c(F)cccc2F)CC1	3.43 µM and 3.14 µM
Cc1ccncc1NC(=O)Cc1cc(Cl)cc(/C=C(/c2ccccc2)C(F)(F)F)c1	22.8 µM
CC(NC(=O)CCl)c1cc(F)cc(Cl)c1 (stereo unspecified)	27.9 µM
